Like-named read-outs stand apart in the source and are kept apart here.

In assay [1] the target is MCL-1 (Homo sapiens (Human), UniProt Q07820). Briefly: Cell free Mcl-1:Bim affinity assay (fluorescence polarization competition). In kind it is binding. The conditions noted are these: 15 nM MCL-1, 5 nM FITC-Bim, 1 hour at room temperature, read-out: BIM_Ki. The essentials:
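Fluorescence polarization competition: 10-point 3-fold compound dilutions displaced 5 nM FITC-Bim from 15 nM MCL-1 over 1 h at room temperature. Ki was derived from the fitted IC50 using the Nikolovska-Coleska equation, with percent inhibition normalized to DMSO and positive controls.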
(In general: Polarisation of emitted light reports the rotation of a fluorescent probe.)

Assay [2] relates to H929 cells. Put plainly: Cell viability assay (H929 10 FBS). Format: cell-based. The conditions noted are these: Homo sapiens, NCI-H929, 24 hours, read-out: H929_10FBS IC50. The essentials: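 ATP-based luminescence (CellTiter-Glo or ATPlite 1 Step, 30-60 min at RT) gauged viability of H929 myeloma cells after 24 h compound treatment at 37 °C. Cells plated at 4000 per well in 10% FBS RPMI 1640 supplemented with pyruvate, HEPES and glucose.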

Sequence of MCL-1 (Q07820 whole entry): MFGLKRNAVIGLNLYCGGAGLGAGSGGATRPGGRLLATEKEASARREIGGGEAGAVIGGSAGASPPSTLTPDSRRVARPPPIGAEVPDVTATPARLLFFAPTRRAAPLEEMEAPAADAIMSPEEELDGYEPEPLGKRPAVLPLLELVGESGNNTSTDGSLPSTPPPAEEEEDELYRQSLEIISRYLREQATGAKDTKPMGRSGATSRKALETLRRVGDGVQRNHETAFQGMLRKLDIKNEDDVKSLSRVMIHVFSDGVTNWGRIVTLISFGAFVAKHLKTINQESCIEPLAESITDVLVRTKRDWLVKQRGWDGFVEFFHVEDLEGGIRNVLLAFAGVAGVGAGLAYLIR

Regarding `CN1C/C=C/[C@H](OC(=O)NC2CCC2)[C@@H]2CC[C@H]2CN2C[C@@]3(CCCc4cc(Cl)ccc43)COc3ccc(cc32)S(=O)(=O)NC(=O)C1(C)C` [Example 201, [(3R,6R,7S,8E,22S)-6′-Chloro-11,12,12-trimethyl-13,15,15-trioxo-spiro[20-oxa-15-thia-1,11,14-triazatetracyclo[14.7.2.03,6.019,24]pentacosa-8,16,18,24-tetraene-22,1′-tetralin]-7-yl] N-cyclobutylcarbamate], the Ki in assay [1] (class symbols) is less than 1 nM. Besides, the IC50 in assay [2] was less than 500 nM.
On to `O=C(NS(=O)(=O)c1ccc2c(c1)N(CC1CCC1)C[C@@]1(CCCc3cc(Cl)ccc31)CO2)C1CCCC1` [Example 13, N-[(3S)-6′-Chloro-5-(cyclobutylmethyl)spiro[2,4-dihydro-1,5-benzoxazepine-3,1′-tetralin]-7-yl]sulfonylcyclopentanecarboxamide], for which the Ki in assay [1] (numeric values) amounted to 22 nM. Also, the IC50 in assay [2] is more than 1000 nM.
With `CC1(C)OC/C=C/[C@H](O)[C@@H]2CC[C@H]2CN2C[C@]3(COc4ccc(cc42)S(=O)(=O)NC1=O)OCCc1cc(Cl)ccc13` [Example 249, (3R,6R,7S,8E,22R)-6′-Chloro-7-hydroxy-12,12-dimethyl-15,15-dioxo-spiro[11,20-dioxa-15-thia-1,14-diazatetracyclo[14.7.2.03,6.019,24]pentacosa-8,16,18,24-tetraene-22,1′-isochromane]-13-one], the Ki in assay [1] (class symbols) lay in the range of 1 to 100 nM. In addition, in assay [2], the IC50 was more than 1000 nM.
In the case of `CC(C)(C)OC(=O)N1CCC(C(=O)NS(=O)(=O)c2ccc3c(c2)N(CC2CCC2)CC2(CCCc4cc(Cl)ccc42)CO3)CC1` (stereo not shown) [Example 21, tert-Butyl 4-[[6′-chloro-5-(cyclobutylmethyl)spiro[2,4-dihydro-1,5-benzoxazepine-3,1′-tetralin]-7-yl]sulfonylcarbamoyl]piperidine-1-carboxylate], in assay [1] (numeric values), the Ki came out at 53.3 nM. For the same molecule, the IC50 in assay [2] is more than 1000 nM.
Regarding `CC1(C)OC/C=C/[C@@H](OCCN2CC(F)(F)C2)[C@@H]2CC[C@H]2CN2C[C@@]3(CCCc4cc(Cl)ccc43)COc3ccc(cc32)S(=O)(=O)NC1=O` [Example 272, (3R,6R,7R,8E,22S)-6′-Chloro-7-[2-(3,3-difluoroazetidin-1-yl)ethoxy]-12,12-dimethyl-15,15-dioxo-spiro[11,20-dioxa-15-thia-1,14-diazatetracyclo[14.7.2.03,6.019,24]pentacosa-8,16,18,24-tetraene-22,1′-tetralin]-13-one], in assay [1] (class symbols), the Ki was less than 1 nM. Moreover, the IC50 in assay [2] is less than 500 nM.
In the same order, the values of `CCO[C@H]1CCN(C(=O)O[C@H]2/C=C/COC(C)(C)C(=O)NS(=O)(=O)c3ccc4c(c3)N(C[C@@H]3CC[C@H]32)C[C@@]2(CCCc3cc(Cl)ccc32)CO4)C1` [Example 162, [(3R,6R,7S,8E,22S)-6′-Chloro-12,12-dimethyl-13,15,15-trioxo-spiro[11,20-dioxa-15-thia-1,14-diazatetracyclo[14.7.2.03,6.019,24]pentacosa-8,16,18,24-tetraene-22,1′-tetralin]-7-yl] (3S)-3-ethoxypyrrolidine-1-carboxylate] are less than 1 nM and less than 500 nM.
Take `CC1(C)OC/C=C/[C@H](OC(=O)NCCN2CCCCC2)[C@@H]2CC[C@H]2CN2C[C@@]3(CCCc4cc(Cl)ccc43)COc3ccc(cc32)S(=O)(=O)NC1=O` [Example 193, [(3R,6R,7S,8E,22S)-6′-Chloro-12,12-dimethyl-13,15,15-trioxo-spiro[11,20-dioxa-15-thia-1,14-diazatetracyclo[14.7.2.03,6.019,24]pentacosa-8,16,18,24-tetraene-22,1′-tetralin]-7-yl] N-[2-(1-piperidyl)ethyl]carbamate]: the Ki in assay [1] (class symbols) lay within 1 to 100 nM. Moreover, in assay [2], the IC50 was less than 500 nM.
In the same order, the values of `CO[C@@H]1/C=C\CN(C)[C@H](C)C(=O)NS(=O)(=O)c2ccc3c(c2)N(C[C@@H]2CC[C@H]21)C[C@@]1(CCCc2cc(Cl)ccc21)CO3` [Example 124, (3R,6R,7R,8Z,12R,22S)-6′-Chloro-7-methoxy-11,12-dimethyl-15,15-dioxo-spiro[20-oxa-15-thia-1,11,14-triazatetracyclo[14.7.2.03,6.019,24]pentacosa-8,16(25),17,19(24)-tetraene-22,1′-tetralin]-13-one] are 1 to 100 nM and less than 1000 nM.
In the case of `CC(=O)NS(=O)(=O)c1ccc2c(c1)N(CC1C[C@@H](C)O[C@@H](C)C1)CC1(CCCc3cc(Cl)ccc31)CO2` (mixture of isomers) [Example 8, N-[6′-Chloro-5-[[rac-(2S,6R)-2,6-dimethyltetrahydropyran-4-yl]methyl]spiro[2,4-dihydro-1,5-benzoxazepine-3,1′-tetralin]-7-yl]sulfonylacetamide], the Ki in assay [1] (numeric values) came to 424 nM. Moreover, the IC50 in assay [2] is more than 1000 nM.
On to `CC1(C)OC/C=C/[C@H](OC(=O)N2CCN(c3ccccn3)CC2)[C@@H]2CC[C@H]2CN2C[C@@]3(CCCc4cc(Cl)ccc43)COc3ccc(cc32)S(=O)(=O)NC1=O` [Example 177, [(3R,6R,7S,8E,22S)-6′-Chloro-12,12-dimethyl-13,15,15-trioxo-spiro[11,20-dioxa-15-thia-1,14-diazatetracyclo[14.7.2.03,6.019,24]pentacosa-8,16,18,24-tetraene-22,1′-tetralin]-7-yl] 4-(2-pyridyl)piperazine-1-carboxylate], for which the Ki in assay [1] (class symbols) is 1 to 100 nM. In addition, the IC50 in assay [2] was less than 500 nM.
Regarding `CCN1C/C=C/[C@H](OC(=O)NC2CCOCC2)[C@@H]2CC[C@H]2CN2C[C@@]3(CCCc4cc(Cl)ccc43)COc3ccc(cc32)S(=O)(=O)NC(=O)C1(C)C` [Example 220, [(3R,6R,7S,8E,22S)-6′-Chloro-11-ethyl-12,12-dimethyl-13,15,15-trioxo-spiro[20-oxa-15-thia-1,11,14-triazatetracyclo[14.7.2.03,6.019,24]pentacosa-8,16,18,24-tetraene-22,1′-tetralin]-7-yl]N-tetrahydropyran-4-ylcarbamate], the Ki in assay [1] (class symbols) is less than 1 nM. Further, the 50% inhibitory concentration (IC50) in assay [2] is less than 500 nM.
As for `CC1(C)OC/C=C/[C@H](OCCN2C[C@@H](F)[C@@H](F)C2)[C@@H]2CC[C@H]2CN2C[C@@]3(CCCc4cc(Cl)ccc43)COc3ccc(cc32)S(=O)(=O)NC1=O` [Example 269, (3R,6R,7S,8E,22S)-6′-Chloro-7-[2-[(3R,4S)-3,4-difluoropyrrolidin-1-yl]ethoxy]-12,12-dimethyl-15,15-dioxo-spiro[11,20-dioxa-15-thia-1,14-diazatetracyclo[14.7.2.03,6.019,24]pentacosa-8,16,18,24-tetraene-22,1′-tetralin]-13-one], the Ki in assay [1] (class symbols) is less than 1 nM. The half-inhibitory concentration (IC50) in assay [2] was less than 500 nM.
In the same order, the values of `CC1(C)OC/C=C/[C@H](OCCN2CCCC2)[C@@H]2CC[C@H]2CN2C[C@@]3(CCCc4cc(Cl)ccc43)COc3ccc(cc32)S(=O)(=O)NC1=O` [Example 66, (3R,6R,7S,8E,22S)-6′-Chloro-12,12-dimethyl-15,15-dioxo-7-(2-pyrrolidin-1-ylethoxy)spiro[11,20-dioxa-15-thia-1,14-diazatetracyclo[14.7.2.03,6.019,24]pentacosa-8,16,18,24-tetraene-22,1′-tetralin]-13-one] are less than 1 nM and less than 500 nM.
With `CNC(=O)O[C@H]1/C=C/COC2(CC2)C(=O)NS(=O)(=O)c2ccc3c(c2)N(C[C@@H]2CC[C@H]21)C[C@@]1(CCCc2cc(Cl)ccc21)CO3` [Example 227, [(3R,6R,7S,8E,22S)-6′-Chloro-12,12-ethylene-13,15,15-trioxo-spiro[11,20-dioxa-15-thia-1,14-diazatetracyclo[14.7.2.03,6.019,24]pentacosa-8,16,18,24-tetraene-22,1′-tetralin]-7-yl] N-methylcarbamate], the Ki in assay [1] (class symbols) is less than 1 nM. Besides, the IC50 in assay [2] was less than 500 nM.
Turning to `CO[C@@H]1/C=C/COC(C)(C)C(=O)NS(=O)(=O)c2ccc3c(c2)N(C[C@@H]2CC[C@H]21)C[C@@]1(CCCc2cc(Cl)ccc21)CO3` [Example 30, (3R,6R,7R,8E,22S)-6′-Chloro-7-methoxy-12,12-dimethyl-15,15-dioxo-spiro[[11,20]dioxa-15-thia-1,14-diazatetracyclo[14.7.2.03,6.019,24]pentacosa[8,16(25),17,19(24)]tetraene-22,1′-tetralin]-13-one], in assay [1] (class symbols), the Ki is less than 1 nM. Also, the IC50 in assay [2] is less than 1000 nM.
In the case of `CO[C@@H]1/C=C/CNC2(CCC2)C(=O)NS(=O)(=O)c2ccc3c(c2)N(C[C@@H]2CC[C@H]21)C[C@@]1(CCCc2cc(Cl)ccc21)CO3` [Example 116, (3R,6R,7R,8E,22S)-6′-Chloro-7-methoxy-12,12-(1,3-propylene)-15,15-dioxo-spiro[[20]oxa-15-thia-1,11,14-triazatetracyclo[14.7.2.03,6.019,24]pentacosa[8,16(25),17,19(24)]tetraene-22,1′-tetralin]-13-one], the Ki in assay [1] (class symbols) lay within 1 to 100 nM. Besides, in assay [2], the IC50 was less than 1000 nM.
Taken in the same sequence, the figures for `COC1CN(C(=O)O[C@H]2/C=C/COC(C)(C)C(=O)NS(=O)(=O)c3ccc4c(c3)N(C[C@@H]3CC[C@H]32)C[C@@]2(CCCc3cc(Cl)ccc32)CO4)C1` [Example 56, [(3R,6R,7S,8E,22S)-6′-Chloro-12,12-dimethyl-13,15,15-trioxo-spiro[11,20-dioxa-15-thia-1,14-diazatetracyclo[14.7.2.03,6.019,24]pentacosa-8,16,18,24-tetraene-22,1′-tetralin]-7-yl] 3-methoxyazetidine-1-carboxylate] were less than 1 nM and less than 500 nM.

Usually IC50 stands for the point on the concentration scale where inhibition reaches its midpoint.

These data come from patent US11130769B2 (Prelude Therapeutics Incorporated, priority 2018, dated 2021).
